Each structure is given as a SMILES string.

The results in this text go back to patent US20220233561A1, “HUMAN MILK OLIGOSACCHARIDES FOR USE IN THE TREATMENT OF SYMPTOMS IN A PATIENT SUFFERING FROM NON-COELIAC WHEAT AND / OR GLUTEN SENSITIVITY” (GLYCOM A/S, priority 2016, published 2022).

Common to all, as to format: cell-based
What all share (conditions): 5 mg HMO/ml, compared to control cultures

Test [1] relates to MUC2 expression in human LS174T cells. As to the kind of experiment: Example 3: goblet cell gene expression by quantitative RT-PCR, MUC2. As for the experimental part: (§1) 2′-FL and LNnT are tested with respect to their ability to induce MUC2, TFF3, EIMβ, CHST5, and GAL3ST2 expression in the human LS174T cell culture model of goblet cells. The human LS174T cell line is obtained from the American Type Culture Collection (ATCC). LS174T cells are maintained in minimum essential medium (MEM) supplemented according to instructions at 37° C. in air containing 5% of CO2. 2′-FL and LNnT are dissolved in cell culture grade water to the required concentration. The LS174T cells are treated with the HMO solution containing 0 or 5 mg HMO/ml. The LS174T cells are collected and suspended in Trizol reagent and total RNA is isolated using an RNA analysis kit (Qiagen) according to the manufacturer's instructions and the RNA isolates are quantified using Nanodrop analysis (Thermo Fisher Scientific). RNA isolates are reverse transcribed using a high capacity cDNA Reverse Transcription Kit (Applied Biosystems) to create cDNA, which is then used to assess gene expression via quantitative RT-PCR. For the quantitative RT-PCR, specific TaqMAN gene expression assays are obtained from Applied Biosystems, which include expression assays for MUC2, TFF3, CHST5 and GAL3ST2. Quantitative real-time PCR is performed using TaqMAN PCR Master Mix (Applied Biosystems). […] The results are analysed using SDS 2.3 software and calculated by delta Ct method. […]

Test [2] relates to TFF3 expression in human LS174T cells. Briefly: Example 3: goblet cell gene expression by quantitative RT-PCR, TFF3. Here is the method:
as §1

For test [3], the system named is CHST5 expression in human LS174T cells. As to the kind of experiment: Example 3: goblet cell gene expression by quantitative RT-PCR, CHST5. As for the experimental part:
as §1

For test [4], the system named is GAL3ST2 expression in human LS174T cells. As to the kind of experiment: Example 3: goblet cell gene expression by quantitative RT-PCR, GAL3ST2. Here is the method: as §1

`CC(=O)N[C@H]1[C@H](O[C@H]2[C@@H](O)[C@@H](CO)O[C@@H](O[C@H]3[C@H](O)[C@@H](O)C(O)O[C@@H]3CO)[C@@H]2O)O[C@H](CO)[C@@H](O[C@@H]2O[C@H](CO)[C@H](O)[C@H](O)[C@H]2O)[C@@H]1O` (mixture of isomers) [LNnT, lacto-N-neotetraose]: the MUC2 gene expression entry in test [1] is reported as “increases the expression”. The TFF3 gene expression result in test [2] was “increases the expression”. Besides, the CHST5 gene expression result in test [3] is reported as “minimal induction”. Moreover, in test [4], the GAL3ST2 gene expression result was “lack of induction”.
